Entries after “also recorded” stand apart in the source; their conditions may differ.
Columns and labels:
[1] = system: fatty liver induced by ethionine; test: Effect on Fatty Liver (ethionine); assay type: in vivo, mouse (dd-strain); conditions: 250 mg/kg oral, 24 h, 10 animals
Description: But, the fatty liver is grouped into a couple of patterns from the mechanism of lipid accumulation or metabolism of lipoprotein in the liver. Ethionine is a typical example which induces first pattern of fatty liver. It inhibits RNA and protein synthesis and destructs polysome of the liver cell. Fatty liver is induced by inhibition of the protein synthesis and disturbance of lipoprotein secretion.
Usually, fatty liver is closely related to the accumulation of triglyceride in the liver. In the present example, the degree of fatty liver and protective or therapeutic effect against the fatty liver was evaluated by measurement of triglyceride content in the liver. Methods:
The compounds of this invention and methionine were independently dissolved or suspended into olive oil and administered orally to 4 week-old male mouse (dd-strain) at the dose of 250 mg/kg. One hour before it, simultaneously to it, or one hour after it, ethionine dissolved in equimolar NaOH solution was administered intraperitoneally at the dose of 200 mg/kg. Twenty four hours after the administration of ethionine, the animals were sacrificed and triglyceride content in the liver was determined by chromotropic acid method.

bile flow = test: Cholagogic Action: effect on bile flow; assay type: in vivo, rats (SD-JCL strain); conditions: 200 mg/kg oral; for Bile flow: before treatment = 100; for Quantity of total excreted bile relative to control: 5 hours after administration
Method: (§1) Drugs as choleresis are used for patients to improve bile flow. In the present example, the effect of the compound of the invention on the quantities of bile and biliary salt is investigated. Methods:
(§2) The male rats (4 week-aged, SD-JCL strain) were anesthetized with sodium pentobarbital (37.5 mg/kg, intraperitoneal injection). The abdominal cavity was opened through a midline incision. The common bile duct was catheterized with polyethylene tube o.d. 0.8 mm. The catheter was brought to the outside through the abdominal incision would prior to closing. Bile was collected from the catheter continuously with time intervals of one hour. The quantity of bile produced in one hour was determined by weighing and that of biliary salt was determined by enzymatic method (Ikagaku Jikkenho Koza 1B, Biological Constituents II, edited by Tamio YAMAKAWA). The amount of biliary salt was represented in the term of cholic acid equivalent.
(§3) In the representation of the results, the quantities of bile and biliary salt produced in one hour prior to the administration of drug were taken as 100. The compound of this invention was orally administered at the dose of 200 mg/kg. As reference, anethol trithion was used.

[2] = system: fatty liver induced by carbon tetrachloride; test: Therapeutic Effect on Fatty Liver (carbon tetrachloride); assay type: in vivo, rats (SD strain); conditions: 10 days; for Degree of fatty liver (histopathological examination): one symbol per animal
Method: Methods: […] The treated animals were left for 3 days after the last administration to maximize the manifestation of fatty liver. […] It was orally given everyday for 10 days at the dose of 50 or 250 mg/kg. On the 11th day, the animals were sacrificed. The therapeutic effect was evaluated by determining the content of liquid in the liver (triglyceride and total lipid) and examining the histopathological changes. Triglyceride and total lipid were determined colorimetrically by chromotropic acid method and Bragdon's oxidation method, respectively. Indices for the histopathological change is as follows: […]

[3] = system: excretion of biliary salt; test: Cholagogic Action: effect on the excretion of biliary salt; assay type: in vivo, rats (SD-JCL strain); conditions: 200 mg/kg oral; for Excretion of biliary salt: before treatment = 100; for Amount of total excreted biliary salts relative to control: 5 hours after administration
Method: as §1, §2, §3

[4] = system: chronic liver damage induced by thioacetamide; test: Therapeutic Effect on Chronic Liver Damage (thioacetamide), BSP test; assay type: in vivo, rats (Spraque Dawley strain); conditions: normal diet + 0.2% of compound after 12 times TAA 100 mg/kg
Method: In the tests of this Example, TAA was repeatedly administered to animals to prepare test animals suffering from somewhat chronic liver damages, and then the present compounds were administered thereto to know whether or not the compounds were effective against chronic hepatitis.
The degree of the liver damage and the therapeutic effects of the compounds were evaluated according to BSP test. The BSP test is a method in which BSP (sulfobromophthalein sodium), a dye known to be quickly metabolized in and excreted from the liver, is intravenously injected into animals and, after a definite period of time, the blood is taken out to measure the amount of BSP remaining in the plasma. In case the animals are suffering from the lever damage, the dye will remain, according to the degree of the damage, at the stage where a major portion of BSP metabolized and excreted in the case of normal animals.
Five groups of rats (Spraque Dawley strain) were treated as follows:
Group A: The rats were orally administered with 100 mg/kg of thioacetamide,at 3 days intervals for 36 days (12 times of the administration), then were submitted for 10 days to a normal diet.
Group B: The rats were orally administered with 100 mg/kg of thioacetamide at 3 days intervals for 36 days (12 times of the administration), then were submitted for 10 days to the normal diet + 0.2% of compound 4.
Group C: The rats were orally administered with 100 mg/kg of thioacetamide at 3 days intervals for 36 days (12 times of the administration), then were submitted for 10 days to the normal diet + 0.2% of compound 2.
Group D: The rats were orally administered with 100 mg/kg of thioacetamide at 3 days intervals for 36 days (12 times of the administration), then were submitted for 10 days to the normal diet + 0.2% of anethol trithion.
Group E: The rats were submitted to the normal diet as the control.
Five rats were sacrificed from each group at appropriate intervals for BSP (sulfobromophthalein) test, the results of which were shown as amounts (mg) of BSP remaining in 1 dl of plasma.

[5] = compound 1 hr before ethionine (200 mg/kg i.p.)
[6] = simultaneous with ethionine (0 hr)

Structure (SMILES)	Triglyceride ([1]; compound 1 hr after ethionine)	Triglyceride [1, 5]	Triglyceride [1, 6]	Bile flow (bile flow; 1 hour after treatment)	Bile flow (bile flow; 2 hours after treatment)	Bile flow (bile flow; 3 hours after treatment)	Bile flow (bile flow; 4 hours after treatment)	Quantity of total excreted bile relative to control (bile flow)	Bile flow (bile flow; 5 hours after treatment)	Total lipid ([2]; 50 mg/kg oral)	Triglyceride ([2]; 50 mg/kg oral)	Degree of fatty liver (histopathological examination) ([2]; 50 mg/kg oral)	Total lipid ([2]; 250 mg/kg oral)	Triglyceride ([2]; 250 mg/kg oral)	Degree of fatty liver (histopathological examination) ([2]; 250 mg/kg oral)	Excretion of biliary salt ([3]; 1 hour after treatment)	Excretion of biliary salt ([3]; 2 hours after treatment)	Excretion of biliary salt ([3]; 3 hours after treatment)	Excretion of biliary salt ([3]; 4 hours after treatment)	Amount of total excreted biliary salts relative to control [3]	also measured
CC(C)OC(=O)C(C(=O)OC(C)C)=C1SCC(O)S1 (stereo not drawn) [Compound 2, Diisopropyl 4-hydroxy-1,3-dithiolan-2-ylidene malonate]	11.8 ± 0.39 mg/g-liver	10.3 ± 0.96 mg/g-liver	6.9 ± 0.38 mg/g-liver	112 ± 2.4	117 ± 6.8	101 ± 7.0	97 ± 8.3	1.13 times	80 ± 7.3	82.3 ± 15.1 mg/g-liver	38.6 ± 8.5 mg/g-liver	± ± + ± ± + ±	68.3 ± 10.3 mg/g-liver	21.6 ± 7.3 mg/g-liver	- - ± ± ± ± -	102 ± 7.3	100 ± 5.8	106 ± 7.9	97 ± 7.2	1.43 times	Excretion of biliary salt ([3]; 5 hours after treatment): 90 ± 5.3; BSP remaining in plasma ([4]; 2 days): 7.0 ± 2.8 mg/dL; BSP remaining in plasma ([4]; 5 days): 3.1 ± 0.7 mg/dL; BSP remaining in plasma ([4]; 10 days): 0.8 ± 0.2 mg/dL
CCOC(=O)C(C(=O)OC(C)C)=C1SCC(O)S1 (stereo not drawn) [Compound 4, Ethyl isopropyl 4-hydroxy-1,3-dithiolan-2-ylidene malonate]	12.8 ± 0.92 mg/g-liver	12.0 ± 0.77 mg/g-liver	6.7 ± 0.43 mg/g-liver	108 ± 2.1	120 ± 7.7	107 ± 6.8	98 ± 7.2	1.11 times	88 ± 5.3	87.6 ± 7.2 mg/g-liver	40.6 ± 8.2 mg/g-liver	+ + + ++; also recorded: ± ± + ± ± ± +	70.3 ± 7.7 mg/g-liver	25.3 ± 4.2 mg/g-liver	± ± ± - - - ±	100 ± 7.2	106 ± 7.8	98 ± 4.3	90 ± 7.7	1.37 times	Excretion of biliary salt ([3]; 5 hours after treatment): 82 ± 6.8; BSP remaining in plasma ([4]; 2 days): 7.2 ± 1.2 mg/dL; BSP remaining in plasma ([4]; 5 days): 3.6 ± 0.5 mg/dL; BSP remaining in plasma ([4]; 10 days): 0.3 ± 0.1 mg/dL
